Values after ≈ are worked out from the molar mass of the structure shown.

In assay [1] the test system is Dengue virus. Briefly: Antiviral activity against dengue virus. Format: functional, organism-based.
For assay [2], the target named is T1, Genome polyprotein (dengue virus type 2, UniProt P29990). Briefly: Inhibition of His-tagged DENV2 NS2B-NS3 serine protease expressed in Escherichia coli BL21 using Boc-Gly-Arg-Arg-7-amino-4-methylcoumarin as substrate measured after 10 mins by fluorometric assay.
For assay [3], the system named is dengue virus type 1. Nature of the assay: Antiviral activity against DENV1 infected in African green monkey Vero cells assessed as reduction in viral replication after 4 days by qRT-PCR analysis. In kind it is functional, organism-based. Particulars: 96 h.
The test system of assay [4] is dengue virus type 2. Briefly: Antiviral activity against DENV2. Format: functional, organism-based.
Assay [5] relates to dengue virus type 2. Nature of the assay: Antiviral activity against DENV2 New Guinea C infected in human Huh7 cells assessed as reduction in viral titer after 3 to 4 days by MTT assay. Format: functional, organism-based. Particulars: Huh-7.
The subject of assay [6] is dengue virus type 2. Briefly: Antiviral activity against DENV2 infected in human Huh7 cells by qRT-PCR analysis. In kind it is functional, organism-based. Particulars: Huh-7.
Assay [7] deals with T1, Genome polyprotein. Nature of the assay: Inhibition of DENV2 NS2B-NS3 serine protease expressed using Benzoyl-Nle-Lys-Arg-Arg-AMC as substrate measured preincubated for 3 mins followed by substrate addition by fluorescence assay.
For assay [8], the system named is dengue virus type 2. Nature of the assay: Antiviral activity against DENV2 infected in BHK-21 cells assessed as viral replication. In kind it is functional, organism-based.
Assay [9] concerns dengue virus type 2. Briefly: Antiviral activity against DENV2 infected in BHK cells assessed as reduction in viral yield after 24 ro 48 hrs by luciferase reporter gene assay. In kind it is functional, organism-based.
The test system of assay [10] is dengue virus type 2. Nature of the assay: Antiviral activity against DENV2 infected in BHK-21 cells assessed as reduction in viral production. In kind it is functional, organism-based.
For assay [11], the target named is T2, Nonstructural protein 5 (Dengue virus, UniProt V5TFZ2). Briefly: Inhibition of dengue virus NS5 RNA dependent RNA polymerase.
Assay [12] deals with dengue virus type 2. Briefly: Antiviral activity against DENV2 infected in BHK-21 cells by MTTR assay. In kind it is functional, organism-based.
Assay [13] relates to dengue virus type 2. Nature of the assay: Antiviral activity against DENV2 infected in BHK-21 cells assessed as viral titer by plaque assay. Format: functional, organism-based.
Assay [14] deals with T1, Genome polyprotein. Nature of the assay: Inhibition of DENV2 NS2B-NS3 serine protease using Bz-Nle-Lys-Arg-Arg-AMC as substrate after 15 mins by fluorescence assay.
The subject of assay [15] is Dengue virus. Briefly: Antiviral activity against dengue virus infected in HeLa cells assessed as reduction in viral propagation after 72 hrs by RT-qPCR analysis. In kind it is functional, organism-based.
The test system of assay [16] is dengue virus type 2. Briefly: Antiviral activity against DENV2 infected in human Huh-7 cells. In kind it is functional, organism-based.
A further assay concerns dengue virus type 4. Briefly: Antiviral activity against DENV4 Dakar infected in African green monkey Vero E6 cells after 3 to 4 days by RT-PCR analysis. In kind it is functional, organism-based. Particulars: Vero C1008.
In assay [17] the test system is dengue virus type 1. Briefly: Antiviral activity against DENV1 Djibouti infected in African green monkey Vero E6 cells after 3 to 4 days by RT-PCR analysis. Format: functional, organism-based. The settings on record: Vero C1008.
Assay [18] deals with T2, Nonstructural protein 5. Nature of the assay: Inhibition of N-terminal His6-tagged DENV3 NS5 RNA dependent RNA polymerase (272 to 900 residues) after 1 hr by fluorescence assay. Set-up: species or system dengue virus type 3.
Another assay concerns dengue virus type 3. Nature of the assay: Antiviral activity against DENV3 Bolivia infected in African green monkey Vero E6 cells after 3 to 4 days by RT-PCR analysis. The settings on record: Vero C1008. In kind it is functional, organism-based.
Assay [19] concerns dengue virus type 2. Nature of the assay: Antiviral activity against DENV2 Martinique infected in African green monkey Vero E6 cells after 3 to 4 days by RT-PCR analysis. Format: functional, organism-based. Particulars: Vero C1008.
For assay [20], the target named is Genome polyprotein (dengue virus type 2) (UniProt P29990). Briefly: Inhibition of DENV2 NS2B-NS3 serine protease.

`O=C1C=C2CCN3Cc4cc5c(cc4[C@H]([C@@H]1O)[C@@H]23)OCO5`: the concentration for a half-maximal effect (EC50) with Dengue virus [1] is 0.4 to 1.8 µM.

`O=C(Nc1cccs1)c1ccccc1Sc1ccc([N+](=O)[O-])cc1`: on Genome polyprotein [2], inhibition was half-maximal at 98 µM (IC50). In the assay on dengue virus type 1 [3], the concentration giving a half-maximal response (EC50) worked out at 3.5 µM.

In the case of `C=C1CC/C=C(\C)CC[C@@H]2[C@@H]1CC2(C)C` [BETA-CARYOPHYLLENE], 22 µM corresponded to half-maximal inhibition in the assay with dengue virus type 2 [4] (IC50).

Consider `COc1cc(/C(C#N)=C/c2cc3ccccc3s2)cc(OC)c1OC`, for which the EC50 with dengue virus type 2 [5] is 7.22 µM.

In the case of `CC[C@](C)(O)CCCCC[C@H]1C=CC(=O)O1`, in the assay with Dengue virus [1], the EC50 was in the range of 11.2 to 21.2 µM.

Compound `OCc1cc(C(O)CNCCCCCCOCCCCc2ccccc2)ccc1O` (stereo not drawn) [SALMETEROL] showed an IC50 in the assay on dengue virus type 2 [6] of 0.67 µM.

In turn, `Cc1ccc(C2=NC(=O)/C(=C/c3cc(O)c(O)c(Br)c3)S2)cc1` yielded an IC50 at Genome polyprotein [7] of 2.94 to 4.06 µM. Besides, in the assay on dengue virus type 2 [8], the EC50 was 6.9 µM.

For `CCN(CC)CCCC(C)Nc1c2ccc(Cl)cc2nc2ccc(OC)cc12` (stereo not drawn) [QUINACRINE], the EC50 in the assay on dengue virus type 2 [9] came out at 5.3 µM.

Compound `CC(C)CC(=O)c1c(O)c2c(c3c(-c4ccccc4)cc(=O)oc13)OC(C)(C)C=C2` [ISOMAMMEIGIN] registered an EC50 with dengue virus type 2 [4] of 2.6 to 10.2 µM.

Compound `CC(C)C[C@@H]1NC(=O)[C@@H]2CCCN2C1=O` displayed an EC50 in the assay with Dengue virus [1] of 11.2 to 21.2 µM.

For the compound `Cc1cc(N2CCN(C)CC2)ccc1NC(=O)c1c2c(nc3ccccc13)CCN(Cc1ccccc1)C2`, the EC50 in the assay with dengue virus type 2 [10] amounted to 5 µM.

Take `C[C@@H]1O[C@@H](Oc2c(-c3ccc(O)c(O)c3)oc3cc(O)cc(O)c3c2=O)[C@H](O)[C@H](O)[C@H]1O` [QUERCITRIN]: at Nonstructural protein 5 [11], the IC50 was 1.7 to 2.1 µM.

In the case of `C/C=C(\C)C(=O)O[C@@H]1CC[C@]2(C)[C@H]3CC[C@@]4(C)[C@@H]([C@@H]5C[C@H]([C@@H]6OC6(C)C)O[C@H]5O)CC[C@]4(C)C3=CC[C@H]2C1(C)C`, a half-maximal effect in the assay with dengue virus type 2 [12] (EC50) was put at 3 µM.

Take `C=C(C)[C@@H]1CC[C@]2(C(=O)O)CC[C@]3(C)[C@H](CC[C@@H]4[C@@]5(C)CC[C@H](O)C(C)(C)[C@@H]5CC[C@]43C)[C@@H]12` [BETULINIC ACID]: the IC50 on Nonstructural protein 5 [11] fell in the range of 1.7 to 2.1 µM.

`C#Cc1cccc(Nc2ncnc3cc(OCCOC)c(OCCOC)cc23)c1` [ERLOTINIB]: the EC50 in the assay with dengue virus type 2 [13] was 4.07 µM.

`CCc1ccc(NS(=O)(=O)c2ccc(N3C(=O)c4ccccc4C3=O)cc2)cc1` had an IC50 against Genome polyprotein [14] of 48.2 µM.

In the assay on Dengue virus [1], `CC(=O)O[C@H]1[C@H]2c3cc4c(cc3CN3CCC(=C[C@@H]1O)[C@H]23)OCO4` registered an EC50 of 0.4 to 1.8 µM.

Regarding `CC1(C)O[C@H]1[C@H]1C[C@@H]([C@H]2CC[C@]3(C)C4=CC[C@H]5C(C)(C)C(=O)CC[C@]5(C)[C@H]4CC[C@@]23C)[C@H](O)O1`, the EC50 with dengue virus type 2 [12] came out at 12 µM.

On Genome polyprotein [14], `O=C1c2ccccc2C(=O)N1c1ccc(S(=O)(=O)Nc2cccc3ccccc23)cc1` had an IC50 of 122 µM.

`CCN(CC)Cc1ccc(C(=O)N(CCc2ccccc2OC)[C@@H]2CCNC2)cc1`: in the assay with Dengue virus [15], the IC50 turned out to be 36.5 µM and the IC90 worked out at 35.5 µM.

In the assay on dengue virus type 2 [16], `O=c1c2cc(O)c(O)cc2oc2cc(O)c([C@@H]3O[C@H](CO)[C@@H](O)[C@H](O)[C@H]3O/C=C/c3ccc(O)c(O)c3)c(O)c12` had an EC50 of 4.1 µg/mL (≈ 7.37 µM).

With `O=C(N[C@@H](Cc1ccc(O)cc1)C(=O)O)c1cc(-c2ccccc2)c(=O)n2c1sc1ccc(OC3CCCCC3)cc12`, the IC50 is 6.8 to 15 µM with dengue virus type 4; 6.8 to 15 µM in the assay with dengue virus type 1 [17]; 1.5 µM at Nonstructural protein 5 [18]; 6.8 to 15 µM with dengue virus type 3; 6.8 to 15 µM in the assay on dengue virus type 2 [19].

In the assay on dengue virus type 2 [4], `CCCCC1C(C(=O)N(C)OC)C(c2ccccc2)CCN1C(=O)OC(C)(C)C` (stereo not drawn) yielded a half-maximal effective concentration (EC50) of 2.4 µM. Moreover, the INH in [20] turned out to be 257 µM.

Turning to `Cc1ccc(C(=O)c2cc(O)c(O)c([N+](=O)[O-])c2)cc1` [TOLCAPONE], the IC50 on Genome polyprotein [7] fell in the range of 0.64 to 1.15 µM. Besides, the EC50 in the assay on dengue virus type 2 [8] worked out at 2.29 µM.

(Values after ChEMBL document CHEMBL4396891, “Recent update on anti-dengue drug discovery” (Eur J Med Chem, 2019).)
